From PubChem BioAssay AID248 (DTP/NCI, 2004)
“And” between values parts separate entries of the source, which are not always exact repeats. Identical values can stand only once. Toxic doses and inconclusive results are not listed. Cut-off read from the data, not from the text of the source: active = T/C of 150% or more; inactive = T/C below 125%.

System: L1210 leukemia ip in BDF1 mice, survival T/C
Experiment: NCI In Vivo Anticancer Drug Screen. Data for tumor model L1210 Leukemia (intraperitoneal) in B6D2F1 (BDF1) mice
Settings: endpoint: mean survival time, higher = longer survival
Method in brief: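 Ratio derived from survival: compound-dosed mice over vehicle-dosed mice, all bearing a transplantable tumor.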

[1] = dose: 100.0 mg/kg/injection, schedule: Q04DX002 (ip), vehicle: saline with Tween-80
[2] = dose: 200.0 mg/kg/injection, schedule: Q04DX002 (ip), vehicle: saline with Tween-80
[3] = dose: 400.0 mg/kg/injection, schedule: Q04DX002 (ip), vehicle: saline with Tween-80
[4] = dose: 50.0 mg/kg/injection, schedule: Q01DX001 (ip), vehicle: carboxymethylcellulose (CMC)
[5] = dose: 100.0 mg/kg/injection, schedule: Q01DX001 (ip), vehicle: carboxymethylcellulose (CMC)
[6] = dose: 100.0 mg/kg/injection, schedule: Q04DX003 (ip), vehicle: other
[7] = dose: 200.0 mg/kg/injection, schedule: Q01DX001 (ip), vehicle: carboxymethylcellulose (CMC)
[8] = dose: 400.0 mg/kg/injection, schedule: Q01DX001 (ip), vehicle: carboxymethylcellulose (CMC)
[9] = dose: 100.0 mg/kg/injection, schedule: Q04DX003 (ip), vehicle: Klucel (hydroxypropylcellulose) (HPC)
[10] = dose: 100.0 mg/kg/injection, schedule: Q01DX001 (ip), vehicle: saline
[11] = dose: 200.0 mg/kg/injection, schedule: Q01DX001 (ip), vehicle: saline
[12] = dose: 100.0 mg/kg/injection, schedule: Q04DX003 (ip), vehicle: saline with Tween-80
[13] = dose: 200.0 mg/kg/injection, schedule: Q04DX003 (ip), vehicle: saline with Tween-80
[14] = dose: 400.0 mg/kg/injection, schedule: Q04DX003 (ip), vehicle: saline with Tween-80

Measured: T/C

Nc1nnn(CCO)n1
inactive: dose: 100.0 mg/kg/injection, schedule: Q04DX003 (ip), vehicle: saline sonified 105 % of control | dose: 200.0 mg/kg/injection, schedule: Q04DX003 (ip), vehicle: saline sonified 102 % of control | dose: 400.0 mg/kg/injection, schedule: Q04DX003 (ip), vehicle: saline sonified 96 % of control

CC(C)(C)NC(=O)NC1CCCCC1
inactive: dose: 100.0 mg/kg/injection, schedule: Q01DX001 (ip), vehicle: saline with Tween-80 95 % of control | dose: 100.0 mg/kg/injection, schedule: Q01DX009 (ip), vehicle: saline with Tween-80 94 % of control and 110 % of control | [1] 97 % of control and 100 % of control | dose: 100.0 mg/kg/injection, schedule: Q04DX003 (ip), vehicle: saline 101 % of control | dose: 200.0 mg/kg/injection, schedule: Q01DX001 (ip), vehicle: saline with Tween-80 98 % of control | dose: 200.0 mg/kg/injection, schedule: Q01DX009 (ip), vehicle: saline with Tween-80 100 % of control and 87 % of control | [2] 97 % of control | dose: 200.0 mg/kg/injection, schedule: Q04DX003 (ip), vehicle: saline 111 % of control | dose: 400.0 mg/kg/injection, schedule: Q01DX001 (ip), vehicle: saline with Tween-80 95 % of control | dose: 400.0 mg/kg/injection, schedule: Q01DX009 (ip), vehicle: saline with Tween-80 100 % of control and 115 % of control | [3] 94 % of control and 90 % of control | dose: 400.0 mg/kg/injection, schedule: Q04DX003 (ip), vehicle: saline 101 % of control

CC(Br)(C(CC(=O)C1CC1)c1ccccc1)[N+](=O)[O-] (stereo not given)
inactive: dose: 25.0 mg/kg/injection, schedule: Q01DX009 (ip), vehicle: other 93 % of control | dose: 25.0 mg/kg/injection, schedule: Q04DX003 (ip), vehicle: other 100 % of control | [4] 108 % of control | dose: 50.0 mg/kg/injection, schedule: Q01DX009 (ip), vehicle: other 89 % of control and 90 % of control | dose: 50.0 mg/kg/injection, schedule: Q04DX003 (ip), vehicle: other 96 % of control | [5] 90 % of control | dose: 100.0 mg/kg/injection, schedule: Q01DX009 (ip), vehicle: other 91 % of control | [6] 93 % of control and 103 % of control | [7] 92 % of control | [8] 95 % of control

O=c1[nH]cnc2ccc([N+](=O)[O-])cc12
inactive: dose: 50.0 mg/kg/injection, schedule: Q04DX003 (ip), vehicle: Klucel (hydroxypropylcellulose) (HPC) 101 % of control | [9] 103 % of control

CCN(CC)CCSC(=O)c1ccc([N+](=O)[O-])cc1
inactive: [10] 98 % of control | [11] 104 % of control

O=C1NC(=O)C2=C1SCCS2
inactive: [1] 91 % of control | [2] 109 % of control | [3] 109 % of control

CC(C(=O)N1c2ccccc2Sc2ccccc21)[N+]1(C)CCCC1 (stereo not given)
inactive: dose: 3.12 mg/kg/injection, schedule: Q01DX009 (ip), vehicle: saline 97 % of control | dose: 6.25 mg/kg/injection, schedule: Q01DX009 (ip), vehicle: saline 103 % of control | dose: 12.5 mg/kg/injection, schedule: Q01DX009 (ip), vehicle: saline 102 % of control | dose: 25.0 mg/kg/injection, schedule: Q01DX009 (ip), vehicle: saline 102 % of control | dose: 25.0 mg/kg/injection, schedule: Q04DX003 (ip), vehicle: saline 107 % of control | dose: 50.0 mg/kg/injection, schedule: Q01DX009 (ip), vehicle: saline 91 % of control | dose: 50.0 mg/kg/injection, schedule: Q04DX003 (ip), vehicle: saline 91 % of control

CCN(c1ccc2c(c1)C(=O)c1ccccc1-2)S(=O)(=O)c1ccc(C)cc1
inactive: [9] 96 % of control | dose: 200.0 mg/kg/injection, schedule: Q04DX003 (ip), vehicle: Klucel (hydroxypropylcellulose) (HPC) 98 % of control | dose: 400.0 mg/kg/injection, schedule: Q04DX003 (ip), vehicle: Klucel (hydroxypropylcellulose) (HPC) 98 % of control

CCCCC1C(=O)OC(C(C)C(O)CCCN=C(N)N)C(C)C=C(C)CCCCC(O)CC(O)CC(O)CC(O)CC(O)C(OC2OC(CO)C(O)C2O)C=C(C)C(O)CCCC(O)CCCC(O)CCC(C)C1O (stereo not given)
inactive: dose: 0.71 mg/kg/injection, schedule: Q01DX Z (ip), vehicle: carboxymethylcellulose (CMC) 96 % of control

CC(=O)OCC1OC(n2ccc3c(=O)[nH]cnc32)C(OC(C)=O)C1OC(C)=O (stereo not given)
inactive: dose: 25.0 mg/kg/injection, schedule: Q01DX015 (ip), vehicle: carboxymethylcellulose (CMC) 121 % of control | [4] 94 % of control | dose: 50.0 mg/kg/injection, schedule: Q01DX015 (ip), vehicle: carboxymethylcellulose (CMC) 112 % of control | [5] 96 % of control | [7] 100 % of control | [8] 102 % of control

O=C1C=C(c2ccccc2)C(c2ccccc2)=C1
inactive: [4] 101 % of control | [5] 95 % of control | [7] 92 % of control | [8] 103 % of control

O=C1c2ccccc2C(=O)C1(c1ccccc1)c1ccccc1
inactive: [5] 103 % of control | [7] 97 % of control | [8] 92 % of control

O=C(NCCc1nc(-c2nc(C(=O)O)cs2)cs1)c1ccccc1
inactive: [12] 103 % of control | [13] 94 % of control | [14] 92 % of control

CC(C)OC(=S)SSC(=S)OC(C)C
inactive: dose: 50.0 mg/kg/injection, schedule: Q01DX009 (ip), vehicle: Klucel (hydroxypropylcellulose) (HPC) 105 % of control | [10] 96 % of control | dose: 100.0 mg/kg/injection, schedule: Q01DX009 (ip), vehicle: Klucel (hydroxypropylcellulose) (HPC) 92 % of control | [6] 107 % of control | [11] 100 % of control | dose: 200.0 mg/kg/injection, schedule: Q01DX009 (ip), vehicle: Klucel (hydroxypropylcellulose) (HPC) 90 % of control | dose: 200.0 mg/kg/injection, schedule: Q04DX003 (ip), vehicle: other 98 % of control | dose: 400.0 mg/kg/injection, schedule: Q01DX001 (ip), vehicle: saline 102 % of control

c1nc(SCSc2ncnc3nc[nH]c23)c2[nH]cnc2n1
inactive: [12] 97 % of control | [13] 90 % of control | [14] 90 % of control
